Assay [1] can be described thus: Flavor impression of the individual compounds. The assay is classed as in vivo. The settings on record: tasting of the compound as such.
For assay [2] the following is noted: cited from earlier work; for sensorial impression: prior art (US 2004/0202760, US 2004/0202619, US 2006/057268, 2006/068071); for effect in the oral cavity: known naturally occurring alkamides.
Assay [3] can be described thus: Flavor comparison in American beef bouillon base with MSG, panel of trained testers (FIG. 1). The assay is classed as in vivo. Conditions: 5 ppm of 1:1 mixture in American beef bouillon base vs base with 0.05% by weight MSG. The protocol:
This is also shown by the spider diagram which is appended as FIG. 1 and in which an American beef bouillon as a base is compared (i) to a base of the type to which 5 ppm of a 1:1 mixture of benzo[1,3]dioxol-5-carboxylic acid ((1S,2S,5R)-2-isopropyl-5-methylcyclohexyl)amide (3) and benzo[1,3]dioxol-5-carboxylic acid ((1R,2R,5S)-2-isopropyl-5-methylcyclohexyl)amide (4) are added and (ii) to a base of the type to which 0.05% by weight of MSG (sodium glutamate) is added.
The flavor of a 0.5% American beef extract as a base (solid, light line) was compared, based on a tasting performed by a panel of trained testers, with the flavor firstly of a base of this type to which 5 ppm of a mixture of benzo[1,3]dioxol-5-carboxylic acid ((1S,2S,5R)-2-isopropyl-5-methylcyclohexyl)amide (3) and benzo[1,3]dioxol-5-carboxylic acid ((1R,2R,5S)-2-isopropyl-5-methylcyclohexyl)amide (4) were added (solid, dark line), and secondly of a base of this type to which 0.05% by weight of MSG was added (dotted line).
The testers judged the […] of the specified types of flavor in each case by awarding scores on a scale of from 0 (no corresponding flavor) to 6 (very strong corresponding flavor). The average values of the respective scores are shown.

The nature of assay [4]: Panel tasting, green tea drink (Application Example 11). The assay is classed as in vivo. Conditions: 0.004% by weight of a 1% solution in propylene glycol in green tea drink, sterilized at 118° C. As for the experimental part: The green tea concentrate is mixed with a 1% solution of a 1:1 mixture of the compounds (3)+(4) in propylene glycol. Afterwards, demineralized water is poured in and the mixture is again thoroughly stirred. Then the product is filtered, packed ready for consumption and sterilized at 118° C.

These results are taken from patent US8871288B2, “Aromatic neomenthylamides as flavoring substances” (Symrise AG, priority 2007, dated 2014).

`COC(=O)c1ccc(C(=O)N[C@H]2C[C@H](C)CC[C@H]2C(C)C)cc1` [(1), N-((1S,2S,5R)-2-isopropyl-5-methylcyclohexyl)terephthalic acid methyl ester]: the flavor impression entry in assay [1] is recorded as “umami flavor without very bitter accompanying notes”. For `COC(=O)c1ccc(C(=O)N[C@@H]2C[C@@H](C)CC[C@@H]2C(C)C)cc1` [(2), N-((1R,2R,5S)-2-isopropyl-5-methylcyclohexyl)terephthalic acid methyl ester], the flavor impression result in assay [1] was “umami flavor without very bitter accompanying notes”. Consider `CC(C)[C@@H]1CC[C@@H](C)C[C@@H]1NC(=O)c1ccc2c(c1)OCO2` [(3), benzo[1,3]dioxol-5-carboxylic acid ((1S,2S,5R)-2-isopropyl-5-methylcyclohexyl)amide], for which the flavor impression entry in assay [1] is listed as “very strong umami flavor”. The same measure, in the same setting: with `CC(C)[C@H]1CC[C@H](C)C[C@H]1NC(=O)c1ccc2c(c1)OCO2` [(4), benzo[1,3]dioxol-5-carboxylic acid ((1R,2R,5S)-2-isopropyl-5-methylcyclohexyl)amide] the entry was “very strong umami flavor”. Same read-out and setting: next, `CC(C)[C@@H]1CC[C@@H](C)C[C@@H]1NC(=O)Cc1ccc2c(c1)OCO2` [(5), 2-benzo[1,3]dioxol-5-yl-N-((1S,2S,5R)-2-isopropyl-5-methylcyclohexyl)acetamide]: “in addition to an umami flavor, a slightly salty note”.

Turning to `CC(C)[C@H]1CC[C@H](C)C[C@H]1NC(=O)Cc1ccc2c(c1)OCO2` [(6), 2-benzo[1,3]dioxol-5-yl-N-((1R,2R,5S)-2-isopropyl-5-methylcyclohexyl)acetamide], the flavor impression entry in assay [1] is on record as “in addition to an umami flavor, a slightly salty note”. For `CC(C)=CCCC(C)=CCNC(=O)C1CC1` [N-3,7-dimethyl-2,6-octadienyl cyclopropylcarboxamide], in assay [2], the sensorial impression entry is “salt and umami intensifier”. Consider `CC/C=C\CC/C=C/C(=O)NC1CC1` [N-cyclopropyl-E2,Z6-nonadienamide], for which the sensorial impression entry in assay [2] is reported as “MSG-like effect”. In the case of `CCCCC/C=C\CC/C=C/C(=O)NCC` [N-ethyl-E2,Z6-dodecadienamide], the sensorial impression result in assay [2] is “MSG-like effect”. Turning to `CC/C=C\CC/C=C/C(=O)NCC` [N-ethyl-E2,Z6-nonadienamide], in assay [2], the sensorial impression result is listed as “MSG-like effect”.

For the compound `CCCCC/C=C/C=C/C(=O)NCC(C)C` [pellitorine], the “effect in the oral cavity” value in assay [2] was “a salivatory and tingling effect, a long-lasting and numbing effect in the oral cavity”. Take `C/C=C/C=C\CC/C=C/C(=O)NCC(C)C` [spilanthol]: the “effect in the oral cavity” value in assay [2] was “a salivatory and tingling effect, a long-lasting and numbing effect in the oral cavity”. For the compound “Benzo[1,3]dioxole-5-carboxylic acid((1S,2S,5R)-2-isopropyl-5-methylcyclohexyl)amide (3)/benzo[1,3]dioxole-5-carboxylic acid((1R,2R,5S)-2-isopropyl-5-methylcyclohexyl)amide (4) [1:1 mixture of the compounds (3)+(4)]”, the “flavor compared to other umami-tasting compounds and to sodium glutamate (MSG)” value in assay [3] was “clear umami flavor which is very similar to sodium glutamate (MSG)”. The “taste compared to the non-aromatized green tea base” value in assay [4] is given as “clearly preferable”.
